Measurements published in patent publication US12227522B2, “Synthesis of structural analogs of largazole and associated compounds” (COLORADO STATE UNIVERSITY RESEARCH FOUNDATION, priority 2020, dated 2025).

How the values were obtained:
Assay type in all cases: biochemical
HDAC 2 = HDAC 2 (Homo sapiens, UniProt Q92769); test: in vitro HDAC inhibition, HDAC isoform 2; conditions: Class 1, in vitro; read-out: HDAC inhibition as IC50, HDAC Isoform 2
HDAC 7 = molecular target: T1, HDAC 7 (Homo sapiens, UniProt Q8WUI4); test: in vitro HDAC inhibition, HDAC isoform 7; conditions: Class 2a, read-out: HDAC inhibition as IC50, HDAC Isoform 7
T1 sequence (Q8WUI4 1-952): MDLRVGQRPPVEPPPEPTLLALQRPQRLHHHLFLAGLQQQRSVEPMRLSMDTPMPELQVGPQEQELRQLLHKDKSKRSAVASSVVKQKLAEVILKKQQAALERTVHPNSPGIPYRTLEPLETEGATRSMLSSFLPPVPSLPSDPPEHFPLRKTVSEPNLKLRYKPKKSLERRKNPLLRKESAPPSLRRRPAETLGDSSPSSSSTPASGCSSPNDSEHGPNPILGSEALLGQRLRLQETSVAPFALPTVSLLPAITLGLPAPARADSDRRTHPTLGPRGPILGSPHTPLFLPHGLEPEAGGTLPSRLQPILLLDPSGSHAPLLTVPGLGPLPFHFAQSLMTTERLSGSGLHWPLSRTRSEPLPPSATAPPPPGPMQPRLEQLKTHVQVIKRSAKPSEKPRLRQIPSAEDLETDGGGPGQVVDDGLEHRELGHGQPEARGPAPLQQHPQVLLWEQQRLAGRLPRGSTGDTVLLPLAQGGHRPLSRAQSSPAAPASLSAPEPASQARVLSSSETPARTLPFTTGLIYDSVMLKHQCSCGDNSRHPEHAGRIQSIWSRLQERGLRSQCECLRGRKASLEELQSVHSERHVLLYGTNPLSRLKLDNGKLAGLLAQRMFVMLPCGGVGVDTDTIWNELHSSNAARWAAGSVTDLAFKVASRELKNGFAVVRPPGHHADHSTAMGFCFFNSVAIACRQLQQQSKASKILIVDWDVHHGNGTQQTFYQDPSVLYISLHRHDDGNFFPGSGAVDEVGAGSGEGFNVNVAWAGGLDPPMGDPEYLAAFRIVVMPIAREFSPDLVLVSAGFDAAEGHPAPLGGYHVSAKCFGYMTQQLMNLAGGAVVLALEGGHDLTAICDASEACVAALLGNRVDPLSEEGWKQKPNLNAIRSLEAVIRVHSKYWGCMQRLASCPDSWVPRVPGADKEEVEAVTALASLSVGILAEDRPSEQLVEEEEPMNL

HDAC 9 = HDAC 9 (Homo sapiens, UniProt Q9UKV0); test: in vitro HDAC inhibition, HDAC isoform 9; conditions: Class 2a, read-out: HDAC inhibition as IC50, HDAC Isoform 9
HDAC 4 = HDAC 4 (Homo sapiens, UniProt P56524); test: in vitro HDAC inhibition, HDAC isoform 4; conditions: Class 2a, read-out: HDAC inhibition as IC50, HDAC Isoform 4
HDAC 3 = HDAC 3 (Homo sapiens, UniProt O15379); test: in vitro HDAC inhibition, HDAC isoform 3; conditions: Class 1, in vitro; read-out: HDAC inhibition as IC50, HDAC Isoform 3
HDAC 1 = HDAC 1 (Homo sapiens, UniProt Q13547); test: in vitro HDAC inhibition, HDAC isoform 1; conditions: Class 1, in vitro; read-out: HDAC inhibition as IC50, HDAC Isoform 1
HDAC 8 = molecular target: T2, HDAC 8 (Homo sapiens, UniProt Q9BY41); test: in vitro HDAC inhibition, HDAC isoform 8; conditions: Class 1, in vitro; read-out: HDAC inhibition as IC50, HDAC Isoform 8
T2 sequence (Q9BY41 1-377): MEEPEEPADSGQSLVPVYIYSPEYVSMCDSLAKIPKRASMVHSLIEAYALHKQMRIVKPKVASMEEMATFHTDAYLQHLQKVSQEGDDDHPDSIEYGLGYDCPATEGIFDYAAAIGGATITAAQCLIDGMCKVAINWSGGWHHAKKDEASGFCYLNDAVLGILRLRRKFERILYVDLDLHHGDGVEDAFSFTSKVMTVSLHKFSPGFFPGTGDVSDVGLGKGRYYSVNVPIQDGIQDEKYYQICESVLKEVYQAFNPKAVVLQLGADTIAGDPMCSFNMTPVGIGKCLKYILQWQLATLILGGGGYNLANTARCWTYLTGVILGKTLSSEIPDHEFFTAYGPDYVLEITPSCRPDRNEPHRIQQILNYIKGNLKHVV

HDAC 6 = molecular target: T3, HDAC 6 (Homo sapiens, UniProt Q9UBN7); test: in vitro HDAC inhibition, HDAC isoform 6; conditions: Class 2b, read-out: HDAC inhibition as IC50, HDAC Isoform 6
T3 sequence (Q9UBN7 1-1215): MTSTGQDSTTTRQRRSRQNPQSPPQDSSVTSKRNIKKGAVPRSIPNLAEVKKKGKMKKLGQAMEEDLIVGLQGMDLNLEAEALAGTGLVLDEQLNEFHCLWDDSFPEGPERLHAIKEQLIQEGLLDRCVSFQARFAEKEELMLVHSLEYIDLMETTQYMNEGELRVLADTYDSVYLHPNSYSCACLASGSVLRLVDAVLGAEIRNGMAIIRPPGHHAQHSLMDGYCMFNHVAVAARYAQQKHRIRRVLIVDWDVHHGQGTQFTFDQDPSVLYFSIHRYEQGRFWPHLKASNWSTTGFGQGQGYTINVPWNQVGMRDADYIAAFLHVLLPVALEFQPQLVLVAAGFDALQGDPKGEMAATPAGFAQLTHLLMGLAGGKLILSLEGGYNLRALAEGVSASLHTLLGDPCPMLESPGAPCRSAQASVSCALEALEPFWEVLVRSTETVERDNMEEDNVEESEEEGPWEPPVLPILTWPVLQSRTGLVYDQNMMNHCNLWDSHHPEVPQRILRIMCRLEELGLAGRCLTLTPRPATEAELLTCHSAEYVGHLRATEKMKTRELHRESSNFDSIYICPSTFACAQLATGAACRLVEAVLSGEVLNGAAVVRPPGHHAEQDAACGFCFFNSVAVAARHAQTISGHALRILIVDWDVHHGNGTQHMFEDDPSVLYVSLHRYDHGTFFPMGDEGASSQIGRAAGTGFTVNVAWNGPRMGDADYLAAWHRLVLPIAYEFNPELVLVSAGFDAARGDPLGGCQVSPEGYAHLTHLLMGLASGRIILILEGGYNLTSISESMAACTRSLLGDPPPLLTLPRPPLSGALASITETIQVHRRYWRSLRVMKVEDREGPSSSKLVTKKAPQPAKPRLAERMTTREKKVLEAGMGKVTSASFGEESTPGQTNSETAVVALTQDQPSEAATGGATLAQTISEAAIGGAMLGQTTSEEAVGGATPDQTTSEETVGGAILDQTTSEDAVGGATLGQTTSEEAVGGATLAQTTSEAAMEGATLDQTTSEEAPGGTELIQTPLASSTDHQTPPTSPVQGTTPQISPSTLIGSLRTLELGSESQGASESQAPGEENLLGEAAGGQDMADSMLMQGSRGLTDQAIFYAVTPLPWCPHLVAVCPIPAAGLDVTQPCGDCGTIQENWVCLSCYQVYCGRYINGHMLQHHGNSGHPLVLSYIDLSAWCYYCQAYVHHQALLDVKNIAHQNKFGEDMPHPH

HDAC 5 = HDAC 5 (Homo sapiens, UniProt Q9UQL6); test: in vitro HDAC inhibition, HDAC isoform 5; conditions: Class 2a, read-out: HDAC inhibition as IC50, HDAC Isoform 5
HDAC 11 = molecular target: T4, HDAC 11 (Homo sapiens, UniProt Q96DB2); test: in vitro HDAC inhibition, HDAC isoform 11; conditions: Class 4, in vitro; read-out: HDAC inhibition as IC50, HDAC Isoform 11
T4 sequence (Q96DB2 1-347): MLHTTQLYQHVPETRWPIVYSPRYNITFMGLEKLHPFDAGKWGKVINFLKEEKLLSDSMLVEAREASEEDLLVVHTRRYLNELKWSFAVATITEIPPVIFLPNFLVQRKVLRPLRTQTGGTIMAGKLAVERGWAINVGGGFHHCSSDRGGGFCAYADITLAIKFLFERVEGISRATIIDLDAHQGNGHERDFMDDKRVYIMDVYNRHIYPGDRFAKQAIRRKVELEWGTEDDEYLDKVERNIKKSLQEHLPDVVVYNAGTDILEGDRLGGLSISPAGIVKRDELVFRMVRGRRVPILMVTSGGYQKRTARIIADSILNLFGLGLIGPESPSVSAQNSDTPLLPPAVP

Measured: IC50

Chain of HDAC 9 (Q9UKV0 whole entry, canonical isoform): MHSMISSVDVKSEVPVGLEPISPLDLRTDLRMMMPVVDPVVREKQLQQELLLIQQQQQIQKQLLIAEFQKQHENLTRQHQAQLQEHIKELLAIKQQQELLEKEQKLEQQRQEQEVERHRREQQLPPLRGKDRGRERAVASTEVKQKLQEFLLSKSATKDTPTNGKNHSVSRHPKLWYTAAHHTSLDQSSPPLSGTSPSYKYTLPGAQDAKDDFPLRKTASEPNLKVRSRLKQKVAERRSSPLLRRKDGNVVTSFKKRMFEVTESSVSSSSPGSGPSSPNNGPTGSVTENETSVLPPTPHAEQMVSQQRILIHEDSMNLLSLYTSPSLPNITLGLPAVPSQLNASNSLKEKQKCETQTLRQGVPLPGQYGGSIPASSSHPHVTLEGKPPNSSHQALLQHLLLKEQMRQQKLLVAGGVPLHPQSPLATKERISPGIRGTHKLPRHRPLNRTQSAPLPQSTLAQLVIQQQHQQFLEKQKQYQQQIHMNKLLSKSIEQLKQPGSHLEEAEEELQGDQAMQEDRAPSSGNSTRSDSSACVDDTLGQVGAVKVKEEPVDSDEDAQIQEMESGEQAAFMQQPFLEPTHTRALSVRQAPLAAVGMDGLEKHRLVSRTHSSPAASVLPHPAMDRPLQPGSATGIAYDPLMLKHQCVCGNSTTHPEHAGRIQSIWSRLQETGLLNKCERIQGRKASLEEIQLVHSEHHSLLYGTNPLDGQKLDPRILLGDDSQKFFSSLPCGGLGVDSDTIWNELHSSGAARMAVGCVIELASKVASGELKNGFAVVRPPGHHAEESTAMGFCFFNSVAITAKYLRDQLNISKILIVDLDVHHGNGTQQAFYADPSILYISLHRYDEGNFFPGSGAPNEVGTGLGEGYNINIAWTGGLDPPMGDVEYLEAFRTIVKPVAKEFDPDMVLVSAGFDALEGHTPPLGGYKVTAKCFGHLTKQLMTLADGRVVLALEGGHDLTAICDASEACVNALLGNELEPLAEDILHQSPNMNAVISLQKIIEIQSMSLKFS
Chain of HDAC 5 (Q9UQL6 whole entry, canonical isoform): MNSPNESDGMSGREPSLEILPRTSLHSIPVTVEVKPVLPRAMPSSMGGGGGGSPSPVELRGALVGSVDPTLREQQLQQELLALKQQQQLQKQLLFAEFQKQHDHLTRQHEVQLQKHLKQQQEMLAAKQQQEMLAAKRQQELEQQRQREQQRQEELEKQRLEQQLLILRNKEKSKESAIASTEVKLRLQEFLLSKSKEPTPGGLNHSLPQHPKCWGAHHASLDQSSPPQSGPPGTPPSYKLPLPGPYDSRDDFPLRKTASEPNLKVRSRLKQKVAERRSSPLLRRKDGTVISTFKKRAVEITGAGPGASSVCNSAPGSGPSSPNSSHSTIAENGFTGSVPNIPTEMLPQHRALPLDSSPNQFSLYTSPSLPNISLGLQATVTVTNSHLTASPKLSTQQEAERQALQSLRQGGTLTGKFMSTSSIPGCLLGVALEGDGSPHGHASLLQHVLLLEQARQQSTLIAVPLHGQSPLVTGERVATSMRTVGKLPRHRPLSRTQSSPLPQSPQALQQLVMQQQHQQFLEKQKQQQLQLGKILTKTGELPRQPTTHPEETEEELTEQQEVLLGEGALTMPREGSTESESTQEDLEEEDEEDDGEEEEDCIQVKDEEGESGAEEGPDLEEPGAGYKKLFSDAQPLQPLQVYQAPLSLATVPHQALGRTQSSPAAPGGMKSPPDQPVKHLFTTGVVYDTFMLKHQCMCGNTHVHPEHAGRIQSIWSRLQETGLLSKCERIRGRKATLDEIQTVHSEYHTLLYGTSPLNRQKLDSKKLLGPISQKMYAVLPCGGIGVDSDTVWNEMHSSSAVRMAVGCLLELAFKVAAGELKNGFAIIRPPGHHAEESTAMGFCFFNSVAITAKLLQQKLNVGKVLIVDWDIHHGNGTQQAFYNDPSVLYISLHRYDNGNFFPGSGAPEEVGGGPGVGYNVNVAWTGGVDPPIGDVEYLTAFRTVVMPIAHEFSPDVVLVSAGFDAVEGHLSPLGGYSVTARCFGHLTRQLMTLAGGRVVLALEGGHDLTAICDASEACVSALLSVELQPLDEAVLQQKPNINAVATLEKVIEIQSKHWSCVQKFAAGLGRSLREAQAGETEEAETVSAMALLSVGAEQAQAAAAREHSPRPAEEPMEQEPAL
Chain of HDAC 3 (O15379 whole entry, canonical isoform): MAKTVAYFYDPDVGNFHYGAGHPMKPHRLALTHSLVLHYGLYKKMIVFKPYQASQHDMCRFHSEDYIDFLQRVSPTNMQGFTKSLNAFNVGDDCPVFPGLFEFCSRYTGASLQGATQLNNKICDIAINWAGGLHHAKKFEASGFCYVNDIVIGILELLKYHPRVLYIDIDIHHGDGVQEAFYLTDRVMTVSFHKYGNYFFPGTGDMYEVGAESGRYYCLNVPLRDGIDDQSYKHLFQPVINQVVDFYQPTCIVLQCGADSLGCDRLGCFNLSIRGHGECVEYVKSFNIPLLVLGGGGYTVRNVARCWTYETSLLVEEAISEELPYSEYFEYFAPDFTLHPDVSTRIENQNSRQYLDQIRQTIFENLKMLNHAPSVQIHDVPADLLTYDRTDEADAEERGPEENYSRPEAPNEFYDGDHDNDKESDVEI
Chain of HDAC 3 (Q9Y618 395-489 partner limits assumed): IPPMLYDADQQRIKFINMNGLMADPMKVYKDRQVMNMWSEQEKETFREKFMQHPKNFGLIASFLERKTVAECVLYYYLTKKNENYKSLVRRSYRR
Chain of HDAC 2 (Q92769 whole entry, canonical isoform): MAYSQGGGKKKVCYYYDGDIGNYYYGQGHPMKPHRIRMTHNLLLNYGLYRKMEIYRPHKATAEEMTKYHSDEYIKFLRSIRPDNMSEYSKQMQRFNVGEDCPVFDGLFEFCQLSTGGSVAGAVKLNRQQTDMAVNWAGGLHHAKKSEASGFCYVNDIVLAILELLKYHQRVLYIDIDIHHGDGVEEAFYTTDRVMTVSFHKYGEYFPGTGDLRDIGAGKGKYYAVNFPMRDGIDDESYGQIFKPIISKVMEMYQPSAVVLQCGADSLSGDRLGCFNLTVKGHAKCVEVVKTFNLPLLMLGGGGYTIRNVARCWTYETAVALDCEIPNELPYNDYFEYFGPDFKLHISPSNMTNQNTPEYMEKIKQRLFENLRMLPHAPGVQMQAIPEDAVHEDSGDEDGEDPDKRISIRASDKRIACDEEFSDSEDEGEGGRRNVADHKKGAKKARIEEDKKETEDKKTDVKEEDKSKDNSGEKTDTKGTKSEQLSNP
Chain of HDAC 1 (Q13547 whole entry, canonical isoform): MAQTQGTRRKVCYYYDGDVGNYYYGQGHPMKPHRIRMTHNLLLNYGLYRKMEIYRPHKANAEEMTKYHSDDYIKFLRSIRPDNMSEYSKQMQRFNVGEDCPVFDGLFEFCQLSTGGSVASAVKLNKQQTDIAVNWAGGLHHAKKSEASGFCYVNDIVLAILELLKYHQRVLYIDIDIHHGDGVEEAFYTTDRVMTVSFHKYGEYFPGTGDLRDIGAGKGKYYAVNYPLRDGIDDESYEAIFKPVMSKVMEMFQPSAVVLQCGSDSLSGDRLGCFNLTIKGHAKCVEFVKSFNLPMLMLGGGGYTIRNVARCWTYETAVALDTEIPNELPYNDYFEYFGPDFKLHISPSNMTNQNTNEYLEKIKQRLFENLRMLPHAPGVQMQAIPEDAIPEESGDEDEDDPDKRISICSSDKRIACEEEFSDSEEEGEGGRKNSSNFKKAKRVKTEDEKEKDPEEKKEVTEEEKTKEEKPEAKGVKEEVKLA
Chain of HDAC 4 (P56524 whole entry, canonical isoform): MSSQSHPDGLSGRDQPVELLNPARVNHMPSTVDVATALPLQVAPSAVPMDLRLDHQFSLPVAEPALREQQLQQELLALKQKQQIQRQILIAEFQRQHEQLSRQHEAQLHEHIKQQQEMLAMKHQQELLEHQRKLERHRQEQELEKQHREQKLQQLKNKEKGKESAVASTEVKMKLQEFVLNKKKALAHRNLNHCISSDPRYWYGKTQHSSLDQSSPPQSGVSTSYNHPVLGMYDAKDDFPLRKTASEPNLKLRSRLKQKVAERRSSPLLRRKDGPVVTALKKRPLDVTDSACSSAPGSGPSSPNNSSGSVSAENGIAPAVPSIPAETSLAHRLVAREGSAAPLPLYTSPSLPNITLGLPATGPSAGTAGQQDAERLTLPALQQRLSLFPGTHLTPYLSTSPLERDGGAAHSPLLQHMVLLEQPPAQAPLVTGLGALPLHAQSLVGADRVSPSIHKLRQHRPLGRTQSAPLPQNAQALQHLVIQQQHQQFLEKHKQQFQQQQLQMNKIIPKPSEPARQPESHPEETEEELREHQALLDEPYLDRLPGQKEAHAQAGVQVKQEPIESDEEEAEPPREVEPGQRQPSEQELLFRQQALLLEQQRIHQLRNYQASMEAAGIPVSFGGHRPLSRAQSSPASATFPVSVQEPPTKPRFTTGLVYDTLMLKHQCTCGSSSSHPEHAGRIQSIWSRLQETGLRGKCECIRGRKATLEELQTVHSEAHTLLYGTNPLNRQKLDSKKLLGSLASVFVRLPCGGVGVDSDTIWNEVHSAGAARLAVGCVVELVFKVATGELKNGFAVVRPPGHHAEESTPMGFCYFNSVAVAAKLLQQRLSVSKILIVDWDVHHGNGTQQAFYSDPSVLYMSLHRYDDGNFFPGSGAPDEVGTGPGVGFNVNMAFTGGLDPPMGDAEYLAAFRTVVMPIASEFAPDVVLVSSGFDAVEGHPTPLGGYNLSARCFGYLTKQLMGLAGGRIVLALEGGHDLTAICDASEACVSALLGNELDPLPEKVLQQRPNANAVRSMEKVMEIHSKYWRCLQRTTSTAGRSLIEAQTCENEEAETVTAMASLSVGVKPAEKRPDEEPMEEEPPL

CC(C)[C@@H]1NC(=O)[C@]2(C)CSC(=N2)c2csc(n2)CNC(=O)C[C@@H](/C=C/CCO)NC1=O
> 10 mM: HDAC 2 | HDAC 7 | HDAC 9 | HDAC 4 | HDAC 3 | HDAC 1 | HDAC 8 | HDAC 6 | HDAC 5 | HDAC 11
